Test results as given in the supplement of paper PMC10627819.

Legend:
S. aureus Newman [1] = test: fitness (endpoint OD595 vs no drug) (fraction); higher = more growth
How it was run: (§1)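 Fitness was defined as the optical density at the transition into stationary phase relative to the robust mean of no-drug control wells. Values were capped at 1. Cultures were started at OD595 0.01 in 384-well plates (30 µl, or 55 µl for S. pneumoniae) in TSB, LB Lennox or CY at 37 °C. OD595 was recorded every 30 min over 14 h, with the first reading subtracted as background.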

S. pneumoniae D39V [2] = test: as above
How it was run: as §1

S. aureus DSM 20231 [3] = test: as above
How it was run: as §1

B. subtilis 168 [4] = test: as above
How it was run: as §1

S. aureus Newman [5] = test: Bliss interaction score (quartile over a dose matrix) (fitness difference); higher = more antagonism (negative = synergy)
How it was run: (§2)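 Combination data were used to infer fitness under each single drug. Fitness is the OD595 at entry into stationary phase divided by the robust mean of the plate's no-drug wells, with a cap of 1. The Bliss score is the observed minus the expected product fitness, summarised by quartiles over technical, biological and donor/recipient replicates.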

S. pneumoniae D39V [6] = test: as above
How it was run: as §2

S. aureus DSM 20231 [7] = test: as above
How it was run: as §2

B. subtilis 168 [8] = test: as above
How it was run: as §2
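Throughout, for Bliss interaction score (quartile over a dose matrix): first quartile when negative (synergy) and third quartile when positive (antagonism).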

CO/N=C(\C(=O)N[C@@H]1C(=O)N2C(C(=O)O)=C(COC(C)=O)CS[C@H]12)c1csc(N)n1 [Cefotaxime] + COc1c(N2C[C@@H]3CCCN[C@@H]3C2)c(F)cc2c(=O)c(C(=O)O)cn(C3CC3)c12 [Moxifloxacin]
one replicate
Conditions | fitness
B. subtilis 168 [4], first compound 0.00775 µg/mL, partner 0.0312 µg/mL | 0.0585
B. subtilis 168 [4], first compound 0.00775 µg/mL, partner 0.0625 µg/mL | 0.0377
B. subtilis 168 [4], first compound 0.00775 µg/mL, partner 0.125 µg/mL | 0.0204
B. subtilis 168 [4], first compound 0.0155 µg/mL, partner 0.0312 µg/mL | 0.0281
B. subtilis 168 [4], first compound 0.0155 µg/mL, partner 0.0625 µg/mL | 0.0221
B. subtilis 168 [4], first compound 0.0155 µg/mL, partner 0.125 µg/mL | 0.0115
B. subtilis 168 [4], first compound 0.031 µg/mL, partner 0.0312 µg/mL | 0.041
B. subtilis 168 [4], first compound 0.031 µg/mL, partner 0.0625 µg/mL | 0.028
B. subtilis 168 [4], first compound 0.031 µg/mL, partner 0.125 µg/mL | 0.0186
S. aureus DSM 20231 [3], first compound 0.039 µg/mL, partner 0.06 µg/mL | 0.611
S. aureus DSM 20231 [3], first compound 0.039 µg/mL, partner 0.12 µg/mL | 0.449
S. aureus DSM 20231 [3], first compound 0.078 µg/mL, partner 0.06 µg/mL | 0.588
S. aureus DSM 20231 [3], first compound 0.078 µg/mL, partner 0.12 µg/mL | 0.478
S. aureus DSM 20231 [3], first compound 0.156 µg/mL, partner 0.06 µg/mL | 0.568
S. aureus DSM 20231 [3], first compound 0.156 µg/mL, partner 0.12 µg/mL | 0.445
S. aureus DSM 20231 [3], first compound 0.312 µg/mL, partner 0.06 µg/mL | 0.518
S. aureus DSM 20231 [3], first compound 0.312 µg/mL, partner 0.12 µg/mL | 0.408
S. aureus Newman [1], first compound 0.039 µg/mL, partner 0.0075 µg/mL | 0.669
S. aureus Newman [1], first compound 0.039 µg/mL, partner 0.015 µg/mL | 0.529
S. aureus Newman [1], first compound 0.039 µg/mL, partner 0.03 µg/mL | 0.0684

Conditions | fitness
B. subtilis 168 [4], first compound 0.0625 µg/mL, partner 0.0312 µg/mL | 0.0617
B. subtilis 168 [4], first compound 0.0625 µg/mL, partner 0.0625 µg/mL | 0.0437
B. subtilis 168 [4], first compound 0.0625 µg/mL, partner 0.125 µg/mL | 0.0547
B. subtilis 168 [4], first compound 0.125 µg/mL, partner 0.0312 µg/mL | 0.062
B. subtilis 168 [4], first compound 0.125 µg/mL, partner 0.0625 µg/mL | 0.044
B. subtilis 168 [4], first compound 0.125 µg/mL, partner 0.125 µg/mL | 0.05
B. subtilis 168 [4], first compound 0.25 µg/mL, partner 0.0312 µg/mL | 0.0545
B. subtilis 168 [4], first compound 0.25 µg/mL, partner 0.0625 µg/mL | 0.0527
B. subtilis 168 [4], first compound 0.25 µg/mL, partner 0.125 µg/mL | 0.0632
B. subtilis 168 [4], first compound 0.5 µg/mL, partner 2 µg/mL | 0.0626
B. subtilis 168 [4], first compound 0.5 µg/mL, partner 4 µg/mL | 0.0595
B. subtilis 168 [4], first compound 0.5 µg/mL, partner 8 µg/mL | 0.043
B. subtilis 168 [4], first compound 1 µg/mL, partner 2 µg/mL | 0.0496
B. subtilis 168 [4], first compound 1 µg/mL, partner 4 µg/mL | 0.0443
B. subtilis 168 [4], first compound 1 µg/mL, partner 8 µg/mL | 0.0259
B. subtilis 168 [4], first compound 2 µg/mL, partner 2 µg/mL | 0.0811
B. subtilis 168 [4], first compound 2 µg/mL, partner 4 µg/mL | 0.0907
B. subtilis 168 [4], first compound 2 µg/mL, partner 8 µg/mL | 0.0539
S. aureus DSM 20231 [3], first compound 0.039 µg/mL, partner 0.0075 µg/mL | 0.674
S. aureus DSM 20231 [3], first compound 0.039 µg/mL, partner 0.015 µg/mL | 0.612
S. aureus DSM 20231 [3], first compound 0.039 µg/mL, partner 0.03 µg/mL | 0.543
S. aureus DSM 20231 [3], first compound 0.078 µg/mL, partner 0.0075 µg/mL | 0.668
S. aureus DSM 20231 [3], first compound 0.078 µg/mL, partner 0.015 µg/mL | 0.634
S. aureus DSM 20231 [3], first compound 0.078 µg/mL, partner 0.03 µg/mL | 0.554
S. aureus DSM 20231 [3], first compound 0.156 µg/mL, partner 0.0075 µg/mL | 0.636
S. aureus DSM 20231 [3], first compound 0.156 µg/mL, partner 0.015 µg/mL | 0.603
S. aureus DSM 20231 [3], first compound 0.156 µg/mL, partner 0.03 µg/mL | 0.536
S. aureus DSM 20231 [3], first compound 0.312 µg/mL, partner 0.0075 µg/mL | 0.574
S. aureus DSM 20231 [3], first compound 0.312 µg/mL, partner 0.015 µg/mL | 0.549
S. aureus DSM 20231 [3], first compound 0.312 µg/mL, partner 0.03 µg/mL | 0.491
S. aureus Newman [1], first compound 0.078 µg/mL, partner 0.0075 µg/mL | 0.657
S. aureus Newman [1], first compound 0.078 µg/mL, partner 0.015 µg/mL | 0.498
S. aureus Newman [1], first compound 0.078 µg/mL, partner 0.03 µg/mL | 0.0551
S. aureus Newman [1], first compound 0.156 µg/mL, partner 0.0075 µg/mL | 0.558
S. aureus Newman [1], first compound 0.156 µg/mL, partner 0.015 µg/mL | 0.432
S. aureus Newman [1], first compound 0.156 µg/mL, partner 0.03 µg/mL | 0.046
S. aureus Newman [1], first compound 0.312 µg/mL, partner 0.0075 µg/mL | 0.354
S. aureus Newman [1], first compound 0.312 µg/mL, partner 0.015 µg/mL | 0.165
S. aureus Newman [1], first compound 0.312 µg/mL, partner 0.03 µg/mL | 0.0657
S. aureus Newman [1], first compound 0.625 µg/mL, partner 0.0075 µg/mL | 0.0357
S. aureus Newman [1], first compound 0.625 µg/mL, partner 0.015 µg/mL | 0.019
S. aureus Newman [1], first compound 0.625 µg/mL, partner 0.03 µg/mL | 0.0143
S. aureus Newman [1], first compound 1.25 µg/mL, partner 0.0075 µg/mL | 0.0365
S. aureus Newman [1], first compound 1.25 µg/mL, partner 0.015 µg/mL | 0.0045
S. aureus Newman [1], first compound 1.25 µg/mL, partner 0.03 µg/mL | 0.0158
S. aureus Newman [1], first compound 2.5 µg/mL, partner 0.0075 µg/mL | 0.0488
S. aureus Newman [1], first compound 2.5 µg/mL, partner 0.015 µg/mL | 0.0142
S. aureus Newman [1], first compound 2.5 µg/mL, partner 0.03 µg/mL | 0.0162
S. pneumoniae D39V [2], first compound 0.0018 µg/mL, partner 0.005 µg/mL | 0.979
S. pneumoniae D39V [2], first compound 0.0018 µg/mL, partner 0.01 µg/mL | 0.976
S. pneumoniae D39V [2], first compound 0.0018 µg/mL, partner 0.02 µg/mL | 0.987
S. pneumoniae D39V [2], first compound 0.0018 µg/mL, partner 0.0312 µg/mL | 0.13
S. pneumoniae D39V [2], first compound 0.0018 µg/mL, partner 0.0625 µg/mL | 0.0856
S. pneumoniae D39V [2], first compound 0.0018 µg/mL, partner 0.125 µg/mL | 0.0466
S. pneumoniae D39V [2], first compound 0.0035 µg/mL, partner 0.005 µg/mL | 0.973
S. pneumoniae D39V [2], first compound 0.0035 µg/mL, partner 0.01 µg/mL | 0.976
S. pneumoniae D39V [2], first compound 0.0035 µg/mL, partner 0.02 µg/mL | 0.964
S. pneumoniae D39V [2], first compound 0.0035 µg/mL, partner 0.0312 µg/mL | 0.108
S. pneumoniae D39V [2], first compound 0.0035 µg/mL, partner 0.0625 µg/mL | 0.0929
S. pneumoniae D39V [2], first compound 0.0035 µg/mL, partner 0.125 µg/mL | 0.0516
S. pneumoniae D39V [2], first compound 0.007 µg/mL, partner 0.005 µg/mL | 0.801
S. pneumoniae D39V [2], first compound 0.007 µg/mL, partner 0.01 µg/mL | 0.827
S. pneumoniae D39V [2], first compound 0.007 µg/mL, partner 0.02 µg/mL | 0.833
S. pneumoniae D39V [2], first compound 0.007 µg/mL, partner 0.0312 µg/mL | 0.0633
S. pneumoniae D39V [2], first compound 0.007 µg/mL, partner 0.0625 µg/mL | 0.0639
S. pneumoniae D39V [2], first compound 0.007 µg/mL, partner 0.125 µg/mL | 0.046

Conditions | Bliss interaction score
B. subtilis 168 [8] | 0.0581
S. aureus DSM 20231 [7] | -0.0497
S. aureus Newman [5] | 0.0354
S. pneumoniae D39V [6] | -0.0434
